Laboratory results: patent US12428433B2, “Fluorine-containing heterocyclic derivatives with macrocyclic structure and use thereof” (ScinnoHub Pharmaceutical Co., Ltd, priority 2019, dated 2025)
pIC50: −log10 of the molar value. Like-named read-outs stand apart in the source and are kept apart here.

Key:
[1] = Stability test in liver microsomes, rat; type: in vitro ADME; settings: for half-life at 1 μM: 0.5 mg/mL
Method: A stability of the compound of the present application in liver microsomes of human, rat and mouse was measured.
3.1 A buffer and a liver microsome were prepared into an incubation solution according to the following table:
3.2 The following two experiments were carried out respectively: a) incubation system added with coenzyme factor NADPH: 25 μL of NADPH (10 mM) was added into an incubation solution (mainly comprising a liver microsome and a phosphate buffer), so that final concentrations of the liver microsome and the NADPH were 0.5 mg/mL and […] respectively; and b) incubation system without coenzyme factor NADPH: 25 μL of phosphate buffer (100 mM) was added into the incubation solution, so that the final concentration of the liver microsome was 0.5 mg/mL. The incubation systems above were preheated at 37° C. for 10 minutes respectively.
3.3 2.5 μL of positive control compound or a tested compound solution (100 μM) was added into the incubation systems described in “step 3.2” above respectively for reaction, and the positive control compound was verapamil (purchased from Sigma), so that a final concentration of the tested compound of the present application or the positive control compound was 1 μM. The incubation solution added with the compound was incubated in water at 37° C. in batches.
3.4 30 μL of aliquot was taken from a reaction solution after 0.5 minute, 5 minutes, 15 minutes, 30 minutes and 45 minutes respectively, and the reaction was terminated by adding 5 times volume of cold acetonitrile containing 200 nM caffeine and 100 nM tolbutamide. The aliquot was centrifuged at a gravity acceleration of 3,220 g for 40 minutes, and 100 μL of supernatant was mixed with 100 μL of ultrapure water, and then used for LC-MS/MS analysis.
A peak area was determined by an extracted ion chromatogram. A slope value k was determined by linear regression of a remaining percentage of a parent drug relative to […] an incubation time curve.
In-vitro half-life periods (t1/2) were respectively calculated and determined according to the slope value, and an average value of the in-vitro half-life periods was converted into an in-vitro intrinsic clearance rate (CLint, represented by μL/min/mg protein).

[2] = biological target: TRKA(G595R) (Homo sapiens (Human), UniProt P04629, G595R); assay: Kinase inhibitory activity (Caliper mobility shift), TRKA(G595R); type: biochemical
Method: […] (Shanghai) Co., Ltd. was commissioned to complete the testing example. […] 3.1 A tested compound was accurately weighed and dissolved in 100% DMSO to prepare into a 10 mM solution. […] 3.2.3 A kinase solution of 2.5 times final concentration was prepared with 1×kinase buffer. […] 3.2.5 The reaction plate was shaken and mixed evenly, and then incubated at room temperature for 10 minutes. 3.2.6 Mixed solutions of ATP and kinase substrate 22 of 5 times and 3 times final concentrations were prepared with 1×kinase buffer. 3.2.7 15 μL of mixed solution of ATP and substrate of 5 times or 3 times final concentration was added. 3.2.8 The 384-well plate was centrifuged at 1,000 rpm for 30 seconds, shaken and mixed evenly, and then incubated at room temperature for corresponding time. 3.2.9 The kinase reaction was terminated. 3.2.10 A conversion rate was read by the microplate reader Caliper EZ Reader. Calculation Formula Inhibition rate %=(conversion rate % maximum-conversion rate % sample)/(conversion rate % maximum-conversion rate % minimum)×100 wherein the conversion rate % sample was: a reading number of a conversion rate of a sample; the conversion rate % minimum was: an average value of the negative control well, which represented a reading number of a conversion rate without an enzyme activity well; and the conversion rate % maximum was: an average value of a ratio of the positive control well, which represented a reading number of a conversion rate without a compound inhibition well.

[3] = In-vivo pharmacokinetic study on SD rats, intravenous and oral; settings: rat, plasma; for AUC(0-t): read-out: Area under curve AUC(0-t); for Cmax: read-out: Concentration to peak Cmax; for half-life: read-out: Half-life period t1/2 (converted); for bioavailability: read-out: Bioavailability F %
Method: Species: SD rats, SPF level. Source: the animals were transferred from the animal repository (999M-017) of the experimental institution of Shanghai Sippe-Bk Lab Animal Co., Ltd. Quantity: 3 rats for each formulation.
2.1 An appropriate amount of test samples were accurately weighed, added to a final volume of 5% DMSO, 10% polyethylene glycol-15 hydroxystearate and 85% normal saline, and fully mixed by vortex or ultrasound to obtain 0.2 mg/mL administration solution for intravenous administration.
2.2 An appropriate amount of test samples were accurately weighed, added to a final volume of 5% DMSO, 10% polyethylene glycol-15 hydroxystearate and 85% normal saline, and fully mixed by vortex or ultrasound to obtain 0.5 mg/mL administration solution for oral and intragastric administration.
Weighing was carried out before administration, and the dosage was calculated according to the weight. Intravenous administration, or oral intragastric administration was carried out.
The blood sampling was carried out before administration and 0.083 hour, 0.25 hour, 0.5 hour, 1 hour, 2 hours, 4 hours, 6 hours, 8 hours, and 24 hours after administration.
The blood sampling was carried out through a jugular vein or other suitable modes, and about 0.20 mL of each sample was collected. Heparin sodium was used for anticoagulation, the collected blood samples were placed on ice, and plasma was centrifuged within 2 hours (the centrifugation was carried out by a centrifugal force of 6,800 g for 6 minutes at 2° C. to 8° C.). The collected plasma samples were stored in a refrigerator at −80° C. before analysis, and the remaining plasma samples after analysis were continuously stored in the refrigerator at −80° C. for temporary storage.
A plasma concentration of a test subject was detected, a plasma concentration-time curve was drawn, and BLQs were all recorded as 0. […] According to blood concentration data at different time points, the pharmacokinetic parameters such as AUC(0-t), T1/2 and Cmax were calculated by WinNonlin.

TRKA(G595R), sequence (P04629 33-796 G595R): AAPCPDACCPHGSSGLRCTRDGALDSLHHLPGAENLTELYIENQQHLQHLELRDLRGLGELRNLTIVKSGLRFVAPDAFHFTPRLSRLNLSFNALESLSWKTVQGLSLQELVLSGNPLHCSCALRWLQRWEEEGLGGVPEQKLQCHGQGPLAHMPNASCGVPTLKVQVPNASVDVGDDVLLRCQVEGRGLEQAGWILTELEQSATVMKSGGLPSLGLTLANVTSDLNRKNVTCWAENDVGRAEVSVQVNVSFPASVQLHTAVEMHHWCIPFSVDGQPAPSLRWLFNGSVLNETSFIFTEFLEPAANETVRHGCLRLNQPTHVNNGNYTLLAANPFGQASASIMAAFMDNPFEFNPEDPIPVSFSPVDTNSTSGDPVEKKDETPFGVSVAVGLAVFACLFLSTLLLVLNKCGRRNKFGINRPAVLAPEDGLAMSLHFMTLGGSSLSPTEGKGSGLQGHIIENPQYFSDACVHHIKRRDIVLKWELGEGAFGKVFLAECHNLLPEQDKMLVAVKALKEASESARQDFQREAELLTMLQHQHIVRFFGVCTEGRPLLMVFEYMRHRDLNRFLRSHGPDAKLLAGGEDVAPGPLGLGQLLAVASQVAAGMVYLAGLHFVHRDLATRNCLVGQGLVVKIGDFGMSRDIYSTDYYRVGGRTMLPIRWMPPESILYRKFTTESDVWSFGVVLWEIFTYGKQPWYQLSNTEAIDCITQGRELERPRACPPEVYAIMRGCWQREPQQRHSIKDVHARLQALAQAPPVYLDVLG

microsomal CLint at 1 μM [1] [µL/min/mg] | half-life at 1 μM [1] [min] | % Remaining(45 min) [1] [%] | pIC50 [2] | AUC(0-t) ([3]; IV @ 1 mg/kg) [ng·h/mL] | Cmax ([3]; IV @ 1 mg/kg) [nM] | half-life ([3]; IV @ 1 mg/kg) [min] | AUC(0-t) ([3]; PO @ 5 mg/kg) [ng·h/mL] | bioavailability ([3]; PO @ 5 mg/kg) [%] | Cmax ([3]; PO @ 5 mg/kg) [nM] | half-life ([3]; PO @ 5 mg/kg) [min] | Structure (SMILES)
123 | 11.3 | 9.03 | 9.14 | 605 | 1160 | 27 | 2270 | 75.1 | 932 | 40.8 | O=C1N[C@H]2C[C@H](C2)Oc2ncc(F)cc2[C@H]2CCCN2c2ccn3ncc1c3n2 (stereo in doubt) [Positive control 1, reference compound]
22.8 | 60.8 | 51.22 | 9.05 | 1480 | 573 | 300 | 8770 | 119 | 1300 | 181 | C[C@H]1Nc2nc3c(cnn3cc2F)C(=O)N[C@H]2C[C@H](C2)Oc2ncc(F)cc21 [Example 3, (3^1S,3^3S,6^3E,6^4E,8R)-1^5,6^6-difluoro-8-methyl-2-oxo-4,7-diaza-6(3,5)-pyrazolo[1,5-a]pyrimidine-1(2,3)-pyridine-3(1,3)-cyclobutylcyclooctane-5-one]
30 | 46.3 | 40.95 | 9.01 | 1010 | 781 | 272 | 3350 | 66.3 | 633 | 180 | C[C@H]1Nc2ccn3ncc(c3n2)C(=O)N[C@H]2C[C@H](C2)Oc2ncc(F)cc21 [Positive control 2, reference compound]

Structure (SMILES) | microsomal CLint at 1 μM [1] [µL/min/mg] | half-life at 1 μM [1] [min] | % Remaining(45 min) [1] [%] | pIC50 [2] | AUC(0-t) ([3]; IV @ 1 mg/kg) [ng·h/mL] | Cmax ([3]; IV @ 1 mg/kg) [nM] | half-life ([3]; IV @ 1 mg/kg) [min] | AUC(0-t) ([3]; PO @ 5 mg/kg) [ng·h/mL] | bioavailability ([3]; PO @ 5 mg/kg) [%] | Cmax ([3]; PO @ 5 mg/kg) [nM] | half-life ([3]; PO @ 5 mg/kg) [min]
O=C1N[C@H]2C[C@H](C2)Oc2ncc(F)cc2[C@H]2CCCN2c2nc3c1cnn3cc2F [Example 2, ((1^3E,1^4E,2^2R,5^1S,5^3S)-1^6,3^5-difluoro-4-oxa-6-aza-1(5,3)-pyrazolo[1,5-a]pyrimidine-3(3,2)-pyridine-2(1,2)-pyrrolidine-5(1,3)-cyclobutancycloheptan-7-one] | 214 | 6.5 | 2.37 | – | 422 | 875 | 19.8 | 1500 | 70.9 | 527 | 33
